# Measured values taken from article PMC4157868, “Real-Time Analysis of Imatinib- and Dasatinib-Induced Effects on Chronic Myelogenous Leukemia Cell Interaction with Fibronectin” (PLoS ONE, 2014).
# Assays:
# [1] = system: JURL-MK1 cells on fibronectin; conditions: cited from earlier work
# [2] = system: active SFKs in MOLM-7 cells; test: immunofluorescence of phospho-SFK in adhesion sites; assay type: cell-based, human; conditions: MOLM-7 on fibronectin
# Protocol: The cells were plated on fibronectin coated coverslips or glass bottom dishes, incubated for 60 minutes in CO2 incubator, fixed with 2% paraformaldehyde, permeabilized in 0.3% Triton/PBS and incubated with anti-phospho-SRC family primary antibody and a secondary antibody (Alexa Fluor 488 Goat Anti-Rabbit). F-actin was labeled with rhodamine phalloidin (Molecular Probes). Samples were analyzed using an Olympus Fluoview FV1000 confocal laser scanning microscope.
# To support our hypothesis that SFKs may be involved in regulation of cell interaction with fibronectin, we studied the intracellular localization of active SFKs using the phospho-specific anti-SFK antibody. […] In JURL-MK1 cells, the active SFKs were found mainly in the contours of cell-surface contact areas and their localization to the sites of the closest contact was less evident due to different morphology (Figure 8B). […] As the main SFKs in JURL-MK1 and MOLM-7 were LYN and LYN+LCK, respectively, we also analyzed the intracellular localization of these individual kinases.
# (PDF) Click here for additional data file.
# [3] = system: JURL-MK1 cells on fibronectin; test: kinetics of JURL-MK1 cell adhesivity to fibronectin (adherent cell fraction); assay type: cell-based, human
# Text: Supplementary file pone.0107367.s001.pdf: Figure S1 Kinetics of dasatinib-induced cell death and changes in cell adhesivity to fibronectin. […] Cell fraction in sub-G1 region of cell cycle phase distribution in samples stained with propidium iodide. […] (PDF) Click here for additional data file.
# [4] = system: JURL-MK1 and MOLM-7 cells on fibronectin; test: real-time microimpedance, cell interaction with fibronectin, BCR-ABL-positive cells; assay type: cell-based, human; conditions: dasatinib 100 nM, clinically relevant dose
# Protocol: RTCA xCELLigence DP system (Acea Biosciences, San Diego, CA, U.S.A.) was placed in an incubator (at 37°C) with 5% CO2 content. […] The microimpedance signal (cell index) was set to zero in these conditions. […] DMSO (0.1%) was also added to control wells.
# Cells were seeded into E-plates and incubated for 1–2 h to allow for cell attachment to the coated cell bottom. After signal stabilization, the drug was added in a small drop while the corresponding solvent was added to control wells as any mechanical perturbation usually produced minor changes, too.
# The cells (6×10^4 per well) were seeded into fibronectin-coated E-plates. After the microimpedance signal stabilization, the appropriate inhibitor was added in triplets. […] Microimpedance signal (cell index) was normalized to 1 at the time of inhibitor addition.
# [5] = system: JURL-MK1 and MOLM-7 cells; test: apoptosis onset: caspase activation (Ac-DEVD-AFC), Annexin V staining; assay type: cell-based, human
# [6] = system: JURL-MK1 and MOLM-7 cells on fibronectin; test: end-point adherent cell fraction on fibronectin-coated wells
# Protocol: Briefly, the cells (1×10^4) were seeded into fibronectin-coated wells on a microtitration plate and incubated for 1 h at 37°C. Then, the cells were washed wih PBS/Ca^2+/Mg^2+ and the remaining cells were quantified by means of fluorescent labelling (CyQuant Cell Proliferation Assay Kit; Molecular Probes). The adherent cell fraction (ACF) was calculated using the fluorescence signal from fibronectin-coated plate and the signal obtained from a reference plate that contained the total cell number.
# [7] = system: HEL and JURKAT cells on fibronectin; test: real-time microimpedance, cell interaction with fibronectin, BCR-ABL-negative cells; assay type: cell-based, human; conditions: low-dose (several nM) dasatinib
# Text: (§1) (PPTX) Click here for additional data file.
# as §1
smiles,measurement,setting,value
CC(C)(C)n1nc(-c2ccc(Cl)cc2)c2c(N)ncnc21 [PP2],effect on JURL-MK1 cell adhesivity to FN,"[1]; PP2, recently reported by the authors",increases JURL-MK1 cell adhesivity to FN
same,phospho-SFK fluorescent signal at adhesion sites,"[2]; 10 µM PP2, 30 min",The same effect was also reached
CC(C)[C@H](NC(=O)c1ccc2ccccc2n1)C(=O)N[C@@H](CC(=O)O)C(=O)COc1c(F)cccc1F [Q-VD-OPh],effect on the dasatinib-induced decrease of cell adhesivity to fibronectin,"[3]; 10 µM Q-VD-OPh added together with 2 nM dasatinib, 24 h",This decrease was prevented
Cc1nc(Nc2ncc(C(=O)Nc3c(C)cccc3Cl)s2)cc(N2CCN(CCO)CC2)n1 [dasatinib],cell adhesivity to fibronectin after 24 h treatment,[3]; dasatinib 2 nM,cell adhesivity to fibronectin lowered
same,effect on CML cell binding to fibronectin,[4],almost no effect
same,"number of early apoptotic cells, Annexin V staining","[5]; 10 nM dasatinib, 6 h, JURL-MK1 and MOLM-7",no significant increase in the number of early apoptotic cells
same,time of treatment at which caspases became activated,[5]; dasatinib 10 nM,about 6 h
same,change in number of cells attached to fibronectin,"[6]; dasatinib 1 to 10 nM, JURL-MK1 and MOLM-7",mild increase in the number of attached cells
same,change in CML cell binding to fibronectin,[6]; dasatinib at therapeutic concentrations (100 nM),does not enhance CML cell binding to fibronectin
same,change of cell binding to fibronectin,[7],no significant change
same,phospho-SFK fluorescent signal at adhesion sites,"[2]; 100 nM dasatinib, 30 min",complete disappearance of the green fluorescent signal from adhesion sites
Cc1ccc(NC(=O)c2ccc(CN3CCN(C)CC3)cc2)cc1Nc1nccc(-c2cccnc2)n1 [imatinib],cell fraction adhering to FN,"[1]; imatinib, first several hours of treatment, JURL-MK1",the cell fraction adhering to FN increased
